Test results as given in paper PMC7613998, “Development of selective inhibitors of phosphatidylinositol 3-kinase C2α” (Nature Chemical Biology, 2022).

Assays:
Test in all cases: biochemical
Design in all cases: SelectScreen Z'-LYTE purified kinase panel, per cent inhibition, mean of two points
Details in all cases: (μM)=Km app
[1] = biological target: PIM2 (Homo sapiens, UniProt Q9P1W9)
[2] = biological target: EGFR (ErbB1) L858R (Homo sapiens, UniProt P00533, L858R)
[3] = biological target: PAK2 (PAK65) (Homo sapiens, UniProt Q13177)
[4] = biological target: ERBB4 (HER4) (Homo sapiens, UniProt Q15303)
[5] = biological target: T1, ACVR1B (ALK4) (Homo sapiens, UniProt P36896)
T1 sequence (P36896 1-505): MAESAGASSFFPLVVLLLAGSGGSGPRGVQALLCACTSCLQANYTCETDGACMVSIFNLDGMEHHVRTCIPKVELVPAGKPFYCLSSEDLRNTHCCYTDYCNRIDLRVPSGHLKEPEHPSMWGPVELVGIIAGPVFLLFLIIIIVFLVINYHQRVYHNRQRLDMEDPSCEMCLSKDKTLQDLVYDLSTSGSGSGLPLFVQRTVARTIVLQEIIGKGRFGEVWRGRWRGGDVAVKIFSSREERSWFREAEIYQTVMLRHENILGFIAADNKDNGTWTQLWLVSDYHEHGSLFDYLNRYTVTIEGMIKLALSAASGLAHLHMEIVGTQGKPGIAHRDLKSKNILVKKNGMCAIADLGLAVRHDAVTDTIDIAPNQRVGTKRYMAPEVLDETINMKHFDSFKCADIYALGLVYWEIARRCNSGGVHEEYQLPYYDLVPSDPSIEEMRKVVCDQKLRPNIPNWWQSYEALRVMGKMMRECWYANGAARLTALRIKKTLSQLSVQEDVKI

[6] = biological target: JAK2 (Homo sapiens, UniProt O60674)
[7] = biological target: T2, IKBKB (IKK beta) (Homo sapiens, UniProt O14920)
T2 sequence (O14920 1-756): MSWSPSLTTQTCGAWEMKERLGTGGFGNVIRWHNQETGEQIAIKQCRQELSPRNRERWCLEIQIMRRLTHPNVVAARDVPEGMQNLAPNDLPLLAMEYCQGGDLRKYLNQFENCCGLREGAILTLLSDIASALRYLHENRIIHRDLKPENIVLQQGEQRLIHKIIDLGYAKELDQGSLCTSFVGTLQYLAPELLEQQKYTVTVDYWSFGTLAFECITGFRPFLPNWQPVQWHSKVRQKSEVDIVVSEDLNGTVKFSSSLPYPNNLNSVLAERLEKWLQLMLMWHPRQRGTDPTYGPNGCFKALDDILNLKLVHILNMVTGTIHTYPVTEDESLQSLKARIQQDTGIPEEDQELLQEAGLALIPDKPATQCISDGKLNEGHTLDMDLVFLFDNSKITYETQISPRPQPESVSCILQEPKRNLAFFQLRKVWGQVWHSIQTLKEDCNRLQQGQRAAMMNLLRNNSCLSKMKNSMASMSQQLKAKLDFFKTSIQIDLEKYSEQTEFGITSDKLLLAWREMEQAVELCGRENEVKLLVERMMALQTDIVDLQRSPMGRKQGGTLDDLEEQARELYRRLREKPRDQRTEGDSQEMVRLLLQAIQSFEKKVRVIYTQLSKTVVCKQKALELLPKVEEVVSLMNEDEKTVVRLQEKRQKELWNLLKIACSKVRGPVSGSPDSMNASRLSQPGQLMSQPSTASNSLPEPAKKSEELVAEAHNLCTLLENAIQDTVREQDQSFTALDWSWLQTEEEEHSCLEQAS

[8] = biological target: FGFR3 (Homo sapiens, UniProt P22607)
[9] = biological target: IGF1R (Homo sapiens, UniProt P08069)
[10] = biological target: PIM3 (Homo sapiens, UniProt Q86V86)

PIM2, sequence (Q9P1W9 whole entry): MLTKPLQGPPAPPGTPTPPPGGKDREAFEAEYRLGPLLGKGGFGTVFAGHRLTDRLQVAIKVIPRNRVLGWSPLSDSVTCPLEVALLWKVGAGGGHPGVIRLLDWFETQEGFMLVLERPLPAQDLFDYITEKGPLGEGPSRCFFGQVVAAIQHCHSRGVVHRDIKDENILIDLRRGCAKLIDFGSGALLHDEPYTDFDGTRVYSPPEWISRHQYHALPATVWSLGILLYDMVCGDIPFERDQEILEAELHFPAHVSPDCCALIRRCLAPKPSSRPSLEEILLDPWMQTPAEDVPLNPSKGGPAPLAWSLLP
IGF1R, sequence (P08069 whole entry): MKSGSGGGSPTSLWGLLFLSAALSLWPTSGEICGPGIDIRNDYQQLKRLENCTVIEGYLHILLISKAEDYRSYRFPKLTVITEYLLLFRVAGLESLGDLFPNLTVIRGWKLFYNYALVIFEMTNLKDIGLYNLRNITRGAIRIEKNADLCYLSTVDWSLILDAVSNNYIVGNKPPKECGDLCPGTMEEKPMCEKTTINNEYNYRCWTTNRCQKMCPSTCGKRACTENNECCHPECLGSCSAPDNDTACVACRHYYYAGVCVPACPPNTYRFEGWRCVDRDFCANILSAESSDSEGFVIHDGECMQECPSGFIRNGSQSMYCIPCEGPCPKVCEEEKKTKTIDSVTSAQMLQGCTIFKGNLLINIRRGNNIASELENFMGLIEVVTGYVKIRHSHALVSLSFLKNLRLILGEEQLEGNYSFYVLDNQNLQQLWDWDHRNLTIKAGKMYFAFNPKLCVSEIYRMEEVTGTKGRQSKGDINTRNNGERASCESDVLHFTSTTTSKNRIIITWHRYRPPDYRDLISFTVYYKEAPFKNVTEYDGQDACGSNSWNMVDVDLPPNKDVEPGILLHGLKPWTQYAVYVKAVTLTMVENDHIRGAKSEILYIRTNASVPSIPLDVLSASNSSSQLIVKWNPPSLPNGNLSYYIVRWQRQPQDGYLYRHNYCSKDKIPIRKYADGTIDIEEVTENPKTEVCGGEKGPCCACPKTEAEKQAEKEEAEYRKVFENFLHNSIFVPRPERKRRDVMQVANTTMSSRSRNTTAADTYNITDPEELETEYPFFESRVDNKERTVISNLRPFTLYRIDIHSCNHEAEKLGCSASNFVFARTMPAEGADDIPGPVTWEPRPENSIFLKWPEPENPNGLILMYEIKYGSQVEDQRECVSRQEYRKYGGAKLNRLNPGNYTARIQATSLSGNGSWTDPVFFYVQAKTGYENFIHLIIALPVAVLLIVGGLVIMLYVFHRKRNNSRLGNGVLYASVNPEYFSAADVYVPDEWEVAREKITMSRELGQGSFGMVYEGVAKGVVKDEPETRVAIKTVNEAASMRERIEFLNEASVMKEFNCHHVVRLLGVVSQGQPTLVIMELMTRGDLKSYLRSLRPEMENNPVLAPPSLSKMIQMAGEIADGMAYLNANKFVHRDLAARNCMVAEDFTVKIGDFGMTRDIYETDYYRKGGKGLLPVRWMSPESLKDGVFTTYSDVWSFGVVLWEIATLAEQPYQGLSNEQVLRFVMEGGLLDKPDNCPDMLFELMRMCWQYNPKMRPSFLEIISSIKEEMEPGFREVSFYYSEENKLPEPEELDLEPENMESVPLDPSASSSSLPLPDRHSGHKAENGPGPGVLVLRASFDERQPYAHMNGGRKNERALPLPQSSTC
JAK2, sequence (O60674 whole entry): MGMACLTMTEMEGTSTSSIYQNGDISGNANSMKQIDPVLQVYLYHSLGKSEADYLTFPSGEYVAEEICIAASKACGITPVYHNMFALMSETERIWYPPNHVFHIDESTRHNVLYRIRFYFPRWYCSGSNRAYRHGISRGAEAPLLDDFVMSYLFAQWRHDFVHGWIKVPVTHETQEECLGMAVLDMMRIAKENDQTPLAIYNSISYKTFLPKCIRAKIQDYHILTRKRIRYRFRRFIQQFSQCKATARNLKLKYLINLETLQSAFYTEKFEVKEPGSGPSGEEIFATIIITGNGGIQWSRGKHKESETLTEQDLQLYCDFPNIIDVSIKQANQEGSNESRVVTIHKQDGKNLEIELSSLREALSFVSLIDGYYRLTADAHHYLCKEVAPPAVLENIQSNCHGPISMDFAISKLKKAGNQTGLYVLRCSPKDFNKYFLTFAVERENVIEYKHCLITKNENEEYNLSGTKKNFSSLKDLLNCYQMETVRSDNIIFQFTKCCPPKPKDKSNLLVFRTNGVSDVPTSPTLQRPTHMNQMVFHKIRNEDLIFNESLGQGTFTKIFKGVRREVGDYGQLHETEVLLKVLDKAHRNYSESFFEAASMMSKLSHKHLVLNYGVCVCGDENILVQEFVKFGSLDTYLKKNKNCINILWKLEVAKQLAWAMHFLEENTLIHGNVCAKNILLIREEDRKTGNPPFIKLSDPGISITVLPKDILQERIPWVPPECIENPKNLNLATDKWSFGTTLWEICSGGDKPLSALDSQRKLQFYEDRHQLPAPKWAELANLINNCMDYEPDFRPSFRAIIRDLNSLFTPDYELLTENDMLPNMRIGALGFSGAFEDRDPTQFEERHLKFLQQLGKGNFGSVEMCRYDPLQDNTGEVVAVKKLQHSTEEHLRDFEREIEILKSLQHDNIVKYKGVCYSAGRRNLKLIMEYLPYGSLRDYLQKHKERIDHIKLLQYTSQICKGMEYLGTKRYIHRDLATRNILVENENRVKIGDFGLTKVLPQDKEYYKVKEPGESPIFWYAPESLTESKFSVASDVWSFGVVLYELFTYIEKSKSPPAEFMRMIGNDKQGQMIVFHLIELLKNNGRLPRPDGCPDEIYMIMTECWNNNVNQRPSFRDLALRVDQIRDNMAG
PAK2 (PAK65), sequence (Q13177 whole entry): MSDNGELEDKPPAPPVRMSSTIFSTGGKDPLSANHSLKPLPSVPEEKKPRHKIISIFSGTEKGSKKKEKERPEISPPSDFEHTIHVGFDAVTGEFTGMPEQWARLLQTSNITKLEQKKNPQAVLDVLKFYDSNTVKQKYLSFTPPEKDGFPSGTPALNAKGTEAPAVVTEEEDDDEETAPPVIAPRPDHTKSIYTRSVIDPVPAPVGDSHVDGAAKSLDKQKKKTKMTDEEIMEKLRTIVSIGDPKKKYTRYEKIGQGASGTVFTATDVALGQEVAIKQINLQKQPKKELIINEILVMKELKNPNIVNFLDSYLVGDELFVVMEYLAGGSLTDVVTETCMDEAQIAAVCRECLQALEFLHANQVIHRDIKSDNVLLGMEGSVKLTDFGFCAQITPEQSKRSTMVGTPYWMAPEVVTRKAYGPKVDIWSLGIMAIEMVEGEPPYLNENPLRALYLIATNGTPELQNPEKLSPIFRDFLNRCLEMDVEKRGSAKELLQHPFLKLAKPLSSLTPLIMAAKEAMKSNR
EGFR (ErbB1) L858R, sequence (P00533 whole entry L858R): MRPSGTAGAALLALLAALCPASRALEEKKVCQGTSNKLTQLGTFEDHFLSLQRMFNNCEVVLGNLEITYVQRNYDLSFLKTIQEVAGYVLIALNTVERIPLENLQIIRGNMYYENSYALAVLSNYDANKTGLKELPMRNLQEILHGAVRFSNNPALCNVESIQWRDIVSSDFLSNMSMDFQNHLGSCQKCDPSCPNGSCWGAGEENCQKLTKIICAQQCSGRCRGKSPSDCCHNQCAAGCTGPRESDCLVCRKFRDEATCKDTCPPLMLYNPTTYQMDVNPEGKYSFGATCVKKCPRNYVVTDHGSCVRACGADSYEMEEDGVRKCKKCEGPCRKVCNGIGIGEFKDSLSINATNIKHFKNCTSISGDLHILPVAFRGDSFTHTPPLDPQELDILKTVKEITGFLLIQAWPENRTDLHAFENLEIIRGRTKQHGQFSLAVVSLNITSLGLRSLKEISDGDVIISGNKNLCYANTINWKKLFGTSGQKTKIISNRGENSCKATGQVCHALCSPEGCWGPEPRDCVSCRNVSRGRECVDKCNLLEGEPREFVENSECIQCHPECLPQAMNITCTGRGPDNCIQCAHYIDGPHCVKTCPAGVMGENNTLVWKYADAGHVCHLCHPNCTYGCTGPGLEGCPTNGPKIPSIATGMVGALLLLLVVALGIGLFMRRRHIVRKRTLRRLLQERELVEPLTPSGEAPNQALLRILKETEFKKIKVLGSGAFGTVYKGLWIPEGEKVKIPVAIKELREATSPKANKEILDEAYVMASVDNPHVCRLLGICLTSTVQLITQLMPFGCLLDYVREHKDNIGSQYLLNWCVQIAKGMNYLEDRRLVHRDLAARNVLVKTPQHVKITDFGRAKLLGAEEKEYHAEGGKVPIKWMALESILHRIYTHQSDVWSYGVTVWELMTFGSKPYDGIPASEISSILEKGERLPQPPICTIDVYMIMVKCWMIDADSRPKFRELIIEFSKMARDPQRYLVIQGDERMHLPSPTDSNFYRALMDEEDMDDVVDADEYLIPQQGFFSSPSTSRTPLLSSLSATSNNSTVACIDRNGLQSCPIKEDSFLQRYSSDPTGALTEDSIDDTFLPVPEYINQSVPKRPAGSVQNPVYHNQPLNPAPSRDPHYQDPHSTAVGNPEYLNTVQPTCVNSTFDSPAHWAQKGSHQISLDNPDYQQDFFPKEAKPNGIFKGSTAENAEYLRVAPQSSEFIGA

| SMILES | inhibition at 1 µM [1] | inhibition at 3 µM [1] | inhibition at 10 µM [1] | inhibition at 1 µM [2] | inhibition at 3 µM [2] | inhibition at 10 µM [2] | inhibition at 1 µM [3] | inhibition at 3 µM [3] | inhibition at 10 µM [3] | inhibition at 1 µM [4] | inhibition at 3 µM [4] | inhibition at 10 µM [4] | inhibition at 1 µM [5] | inhibition at 3 µM [5] | inhibition at 10 µM [5] | inhibition at 1 µM [6] | inhibition at 3 µM [6] | inhibition at 10 µM [6] | inhibition at 1 µM [7] | inhibition at 3 µM [7] | also measured |
| --- | --- | --- | --- | --- | --- | --- | --- | --- | --- | --- | --- | --- | --- | --- | --- | --- | --- | --- | --- | --- | --- |
| O=C(CSc1nc2nccnc2c(=O)n1CCc1ccccc1)Nc1nccs1 [compound 1, PITCOIN1] | -5.29% | -3.77% | -7.86% | -0.259% | 2.85% | -1.14% | 2.87% | -3.37% | 3.3% | -3.45% | -1.62% | 0.146% | 3.41% | 5.04% | 3.29% | 0.852% | -8.02% | -7.27% | 8.34% | 4.24% | inhibition at 10 µM [7]: 4.15%; inhibition at 1 µM [8]: 7.72%; inhibition at 3 µM [8]: -7.09%; inhibition at 10 µM [8]: -15.3%; inhibition at 1 µM [9]: 7.35%; inhibition at 3 µM [9]: 2.59%; inhibition at 10 µM [9]: 5.33%; inhibition at 1 µM [10]: -19.5%; inhibition at 3 µM [10]: 0.932%; inhibition at 10 µM [10]: 0.817% |
| CS(=O)(=O)Nc1cccc(-c2csc(NC(=O)CSc3nc4nccnc4c(=O)n3CCc3ccccc3)n2)c1 [compound 3, PITCOIN3] | -0.888% | -5.98% | -4.75% | 1.72% | 5.21% | -1.6% | 4.79% | 5.93% | 0.538% | -2.57% | -5.3% | -3.59% | 5.04% | 9.13% | 4.09% | -4.04% | -2.51% | -3.7% | 3.7% | 14.3% | inhibition at 10 µM [7]: 12.2%; inhibition at 1 µM [8]: -8.51%; inhibition at 3 µM [8]: 0.972%; inhibition at 10 µM [8]: 8.3%; inhibition at 1 µM [9]: 5.31%; inhibition at 3 µM [9]: 9.19%; inhibition at 10 µM [9]: 11.7%; inhibition at 1 µM [10]: -2.65%; inhibition at 3 µM [10]: -27.1%; inhibition at 10 µM [10]: -12.5% |
